Laboratory results reported in patent US6787612B1, “Resin derivatization method and uses thereof” (Dendreon Corporation, priority 1998, dated 2004).

What was measured:
thrombin = conditions: in vitro assays
urokinase = urokinase (Homo sapiens, UniProt P00749); assay: urokinase inhibitory activity in in vitro assays; format: biochemical; conditions: for urokinase inhibitory activity: in vitro assays

Row | SMILES | thrombin inhibitory activity (thrombin) | specific inhibitory activity toward urokinase (urokinase) | urokinase inhibitory activity (urokinase)
1 | N=C(N)NCCCC(C=O)NC(=O)CN1CCCC(NS(=O)(=O)Cc2ccccc2)C1=O (stereo not shown) [Example 8, Benzylsulfonamido-6Lactam-Gly-Argininal] | shown to have thrombin inhibitory activity | – | –
2 | N=C(N)NCCCC(C=O)NC(=O)C1CCN1C(=O)C(CO)NS(=O)(=O)c1ccccc1.O=C(O)C(F)(F)F [Example 14, benzenesulfonyl-D-seryl-azetidyl-argininal, trifluoroacetate salt] | – | demonstrates specific inhibitory activity toward urokinase | shown to have urokinase inhibitory activity
3 | C[C@H](NC(=O)[C@@H](CO)NCCCc1ccccc1)C(=O)N[C@H](C=O)CCCNC(=N)N.O=C(O)C(F)(F)F [Example 26, N-alpha-(3-phenylpropyl)-D-seryl-alanyl-argininal, trifluoroacetate salt] | – | – | shown to have urokinase inhibitory activity
